Results reported in patent US6930185B2, “Melanin-concentrating hormone antagonist” (Takeda Chemical Industries, Ltd., priority 2000, dated 2005).

What was measured:
SLC-1 = SLC-1 (UniProt Q99705); test: Determination of antagonist activity using GTPγS binding assay; format: biochemical, human/rat; conditions: inhibition of MCH-stimulated [35S]-Guanosine 5′-(γ-thio) triphosphate binding, SLC-1 expressing CHO cell membrane fractions
Protocol: Determination of Antagonist Activity Using GTPYS Binding Assay of Test Compound
Membrane fraction was prepared by the following method, using the human SLC-1 expressing CHO cell clone 57 obtained in Reference Example 1-10, and the rat SLC-1 expressing CHO cell clone 44 obtained in Reference Example 1-4.
The human and rat SLC-1 expressing CHO cells (1×10^8) were scraped in buffer saline phosphate (pH 7.4) to which 5 mM EDTA (ethylenediaminetetraacetic acid) had been added, and centrifuged. 10 ml of homogenized buffer (10 mM NaHCO3, 5 mM EDTA, pH 7.5) was added to the cell pellets, and they were homogenized using a Polytron homogenizer. […]
After this reaction mixture was allowed to react for 1 hour under stirring, it was filtered under vacuum using a glass filter (GF-C), then the filter was washed 3 times with 300 μl of washing solution (50 mM Tris-HCl buffer solution pH 7.5). […] of liquid scintillator was added to the glass filter, and residual radioactivity was determined using a liquid scintillation counter.
The IC50 value of the compound was calculated from the binding inhibition rate (%), based on the definition that the binding inhibition rate (%)=(radioactivity when compound and MCH were added−radioactivity when DMSO solution was added)/(radioactivity when MCH was added−radioactivity when DMSO solution was added)×100.

- melting point: 230 to 231 °C
- IC50 (SLC-1): 5 nM
Structure (SMILES): CN(C)Cc1ccc2cc(NC(=O)c3ccc(-c4ccc(Cl)cc4)cc3)ccc2c1 [Example 1, 4′-Chloro-N-[6-[(N,N-dimethylamino)methyl]-2-naphthyl][1,1′-biphenyl]-4-carboxamide]
